Our source for the IC50 values is publication PMC4417528, “Loureirin B, an essential component of Sanguis Draxonis, inhibits Kv1.3 channel and suppresses cytokine release from Jurkat T cells” (Cell & Bioscience, 2014).

Common to all, as to assay type: cell-based
The target of one assay is T1, mKv1.3-H404T (Mus musculus, UniProt P16390, H404T).
T1 construct: gene Kcna3; mKv1.3 mutant expressed in HEK293T cells
Kind of assay: whole-cell patch clamp, HEK293T cells, steady-state current at +[…] mV.

The next assay deals with T2, mKv1.3 (Mus musculus, UniProt P16390).
T2 construct: gene Kcna3; wild-type mKv1.3 expressed in HEK293T cells
The assay is described as above.

In the next assay the target is T3, mKv1.3-A418C (Mus musculus, UniProt P16390, A418C).
T3 construct: gene Kcna3; mKv1.3 mutant expressed in HEK293T cells
Described as above.

Another assay concerns the target T4, Kv1.3 (Homo sapiens, UniProt P22001).
T4 construct: gene KCNA3; endogenous Kv1.3 in Jurkat T cells
Kind of assay: whole-cell patch clamp, Jurkat T cells. (Patch clamp records ionic current or voltage across a cell membrane.)

T4 sequence (P22001 whole entry): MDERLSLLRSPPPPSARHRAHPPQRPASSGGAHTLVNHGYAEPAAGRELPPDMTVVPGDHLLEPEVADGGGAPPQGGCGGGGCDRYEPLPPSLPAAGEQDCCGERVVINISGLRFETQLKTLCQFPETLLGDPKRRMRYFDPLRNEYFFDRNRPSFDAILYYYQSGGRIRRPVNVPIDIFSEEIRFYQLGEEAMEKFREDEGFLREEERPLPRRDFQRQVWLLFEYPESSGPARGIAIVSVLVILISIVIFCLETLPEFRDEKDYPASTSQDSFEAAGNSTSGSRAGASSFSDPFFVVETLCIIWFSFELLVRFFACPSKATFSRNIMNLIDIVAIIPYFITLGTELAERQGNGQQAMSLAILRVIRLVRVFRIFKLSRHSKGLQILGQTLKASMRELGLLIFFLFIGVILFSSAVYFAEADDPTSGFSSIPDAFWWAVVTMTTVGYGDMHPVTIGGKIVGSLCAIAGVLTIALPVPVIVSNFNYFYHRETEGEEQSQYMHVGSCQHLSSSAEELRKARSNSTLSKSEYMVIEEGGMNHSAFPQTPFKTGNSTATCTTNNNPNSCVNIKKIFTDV
T3 sequence (P16390 whole entry A418C): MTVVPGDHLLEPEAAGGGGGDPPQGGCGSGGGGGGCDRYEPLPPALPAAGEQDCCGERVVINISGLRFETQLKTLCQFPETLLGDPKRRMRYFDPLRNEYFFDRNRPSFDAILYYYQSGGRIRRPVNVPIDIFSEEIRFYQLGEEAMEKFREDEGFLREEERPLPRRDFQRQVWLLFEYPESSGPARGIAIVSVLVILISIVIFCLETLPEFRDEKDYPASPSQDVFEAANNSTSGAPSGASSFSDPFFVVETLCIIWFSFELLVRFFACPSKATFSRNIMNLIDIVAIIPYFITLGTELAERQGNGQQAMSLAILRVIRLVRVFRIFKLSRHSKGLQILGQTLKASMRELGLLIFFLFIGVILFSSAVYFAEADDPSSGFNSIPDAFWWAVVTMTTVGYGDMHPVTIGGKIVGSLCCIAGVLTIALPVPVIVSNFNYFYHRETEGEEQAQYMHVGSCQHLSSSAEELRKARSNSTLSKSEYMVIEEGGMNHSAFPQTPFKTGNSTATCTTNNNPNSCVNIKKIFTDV
T1 sequence (P16390 whole entry H404T): as the sequence (P16390 whole entry A418C) above, with H404T, C418A counted along it
T2 sequence (P16390 whole entry): as the sequence (P16390 whole entry A418C) above, with C418A counted along it

One may read the IC50 as the point on the concentration scale where inhibition reaches its midpoint. For `COc1cc(OC)c(CCC(=O)c2ccc(O)cc2)c(OC)c1` [LrB, loureirin B], the IC50 at mKv1.3-H404T was 116 ± 19.8 µM; on mKv1.3, 7.2 ± 0.6 µM; at mKv1.3-A418C, 29.1 ± 7.1 µM; against Kv1.3, 19.9 ± 1.8 µM.
